{"source": "paper PMC4998035", "about": "(International Journal of Nanomedicine, 2016)", "key": {"[1]": {"conditions": "in vitro; cited from earlier work"}, "[2]": {"conditions": "in vivo; cited from earlier work"}, "[3]": {"assay": "Solubility of FK506 in NIC solution", "assay_type": "physicochemical"}, "[4]": {"assay": "In vitro percutaneous permeation, vertical Franz diffusion cell", "assay_type": "in vitro ADME, Sprague Dawley rats", "conditions": "20% NIC solution without FK506; data not shown"}}, "note": "Where two headings read alike, the source gives them in different places."}
{"smiles": "C=CC[C@@H]1/C=C(\\C)C[C@H](C)C[C@H](OC)[C@H]2O[C@@](O)(C(=O)C(=O)N3CCCC[C@H]3C(=O)O[C@H](/C(C)=C/[C@@H]3CC[C@@H](O)[C@H](OC)C3)[C@H](C)[C@@H](O)CC1=O)[C@H](C)C[C@@H]2OC", "note": "[FK506, Tacrolimus]", "values": [{"measurement": "Immunosuppressant activity relative to cyclosporine A", "setting": "[1]", "value": "30–100 fold"}, {"measurement": "Immunosuppressant activity relative to cyclosporine A", "setting": "[2]", "value": "10–20 fold"}, {"measurement": "Solubility in 30% (w/v) NIC solution relative to that in water", "setting": "[3]; 30% (w/v) NIC vs water", "value": 532, "unit": "fold"}, {"measurement": "solubility at 3 days", "setting": "[3]; water (0% (w/v) NIC), 37 °C, water, thermodynamic from solid", "value": "0.69 ± 0.24", "unit": "µg/mL"}]}
{"smiles": "NC(=O)c1cccnc1", "note": "[NIC, nicotinamide]", "values": [{"measurement": "Permeation of NIC into skin", "setting": "[4]", "value": "easily permeate into skin"}]}
